The text below walks through data of patent publication US10590109B2, “Heterocyclic compounds used as FGFR inhibitors” (Nanjing InnoCare Pharma Tech Co., Ltd., priority 2016, dated 2020).

Assay type in all cases: biochemical
In assay [1] the target is human recombinant FGFR4 catalytic structural domain protein (Homo sapiens (Human), UniProt P22455). Kind of assay: FGFR4 activity inhibition test (HTRF kinase assay). Conditions: 90 μM ATP.
The target in assay [2] is human recombinant FGFR1 catalytic structural domain protein (Homo sapiens (Human), UniProt P11362). The assay can be described thus: FGFR1 activity inhibition test (HTRF kinase assay). The following applies: 40 μM ATP.
Chain of human recombinant FGFR1 catalytic structural domain protein (P11362 other isoform, or with tags, fused parts or gaps): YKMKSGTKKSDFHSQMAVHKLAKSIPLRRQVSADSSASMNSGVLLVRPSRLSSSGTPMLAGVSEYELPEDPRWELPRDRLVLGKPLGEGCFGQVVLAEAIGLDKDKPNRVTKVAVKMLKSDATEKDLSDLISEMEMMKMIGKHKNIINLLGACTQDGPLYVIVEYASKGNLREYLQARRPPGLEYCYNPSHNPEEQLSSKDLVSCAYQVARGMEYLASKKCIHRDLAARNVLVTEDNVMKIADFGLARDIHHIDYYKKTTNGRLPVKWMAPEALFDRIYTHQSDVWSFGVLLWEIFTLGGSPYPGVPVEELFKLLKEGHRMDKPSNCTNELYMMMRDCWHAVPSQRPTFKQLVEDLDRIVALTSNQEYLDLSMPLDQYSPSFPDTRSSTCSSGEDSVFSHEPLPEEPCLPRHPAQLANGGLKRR
In assay [3] the target is human recombinant FGFR2 catalytic structural domain protein (Homo sapiens (Human), UniProt P21802). Kind of assay: FGFR2 activity inhibition test (HTRF kinase assay). Conditions: 50 μM ATP. As to the method: FGFR2 Activity Inhibition Test
Chain of human recombinant FGFR2 catalytic structural domain protein (P21802 400-821): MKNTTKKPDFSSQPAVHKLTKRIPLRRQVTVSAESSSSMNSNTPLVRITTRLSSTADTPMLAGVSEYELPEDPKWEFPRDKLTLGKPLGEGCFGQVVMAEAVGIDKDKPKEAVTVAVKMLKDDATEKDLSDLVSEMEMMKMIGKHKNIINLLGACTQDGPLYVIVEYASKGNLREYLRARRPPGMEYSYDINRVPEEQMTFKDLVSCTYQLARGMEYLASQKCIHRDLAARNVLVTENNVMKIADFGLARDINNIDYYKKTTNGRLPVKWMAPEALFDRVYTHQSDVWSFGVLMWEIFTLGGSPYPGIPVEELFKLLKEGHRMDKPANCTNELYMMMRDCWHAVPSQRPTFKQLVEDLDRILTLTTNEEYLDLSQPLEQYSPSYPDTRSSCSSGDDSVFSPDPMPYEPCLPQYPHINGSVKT
The influence of the compound according to the present invention on the activity of fibroblast growth factor receptor 2 (FGFR2) was evaluated by an in vitro kinase assay experiment.
The experimental method is summarized as follows:
The in vitro activity of FGFR2 was determined by assaying the phosphorylation level of the substrate in the kinase reaction, by means of an HTRF kinase assay kit. The reaction buffer comprised the following components: 5-fold diluted Enzymatic buffer/kinase 5× (Cisbio, Catalog number 62EZBFDD) (main ingredient: 50 mM HEPES, pH 7.0), 5 mM MgCl2, 1 mM DTT; the human recombinant FGFR2 catalytic structural domain protein (amino acids 400-821) was commercially available from Beijing Sino Biological Inc., diluted with the reaction buffer to a 0.045 ng/μL kinase solution; the substrate reaction solution comprised a biotin labeled tyrosine kinase substrate diluted with the reaction buffer to 800 nM (Cisbio, catalog number 62TK0PEC), and 50 μM ATP, and the assay solution comprised an Eu^3+ labeled cage-shaped antibody (Cisbio, Catalog number 61T66KLB) diluted with the assay buffer (Cisbio, Catalog number 62SDBRDF) to 0.125 ng/μL, and 50 nM streptavidin labeled XL665 (Cisbio, Catalog number 610SAXLB).
The compound was dissolved and diluted in 100% DMSO to 100 μM, then 4-fold-series diluted with DMSO to a minimum concentration of 0.0061 μM, and each concentration point was then 40-fold diluted with the reaction buffer. If the IC50 value of the compound was very low, the initial concentration of the compound could be reduced.
4 μL of a compound solution and 2 μL of an FGFR2 kinase solution were added into a 384 well assay plate (Thermo, Catalog number 264706), mixed uniformly and then incubated for 15 min at room temperature; subsequently, 4 μL of the substrate reaction solution was added therein, and the reaction mixture was incubated for 60 min at room temperature; and then 10 μL of an assay solution of an equal volume to the reaction was added therein and mixed uniformly, followed by placement at room temperature. After 60 min, the enzyme reaction was terminated by EDTA in the assay solution, and the phosphorylated products were identified by both the Eu^3+ labeled cage-shaped antibody (donor) and the streptavidin labeled XL665 antibody (receptor) at the same time. After the excitation with laser, the donors and receptors that were close to each other experienced energy resonance transfer, and the energy transferred from the donor (620 nm) to the receptor (665 nm) could be detected with Envision. The ratio of 665/620 is in positive correlation to the phosphorylation degree of the substrate, thereby to detect the FGFR2 kinase activity. […] The inhibition percentage of the compound against FGFR2 activity could be calculated with the following formula: Inhibition percentage=100−100*(signalcompound−signalnegative control)/(signalpositive control−signalnegative control)
The IC50 value of the compound was calculated by the following formula, from 10 concentration points, with XLfit (ID Business Solutions Ltd., UK): Y=Bottom+(Top−Bottom)/(1+10^((Log IC50−X)*slope factor))
Where, Y is the inhibition percentage, Bottom is the bottom plateau of the curve (the bottom plateau of the S-type curve), Top is the top plateau of the curve (the top plateau of the S-type curve), and X is the log value of the compound concentration to be measured.

Chain of human recombinant FGFR4 catalytic structural domain protein (P22455 460-802): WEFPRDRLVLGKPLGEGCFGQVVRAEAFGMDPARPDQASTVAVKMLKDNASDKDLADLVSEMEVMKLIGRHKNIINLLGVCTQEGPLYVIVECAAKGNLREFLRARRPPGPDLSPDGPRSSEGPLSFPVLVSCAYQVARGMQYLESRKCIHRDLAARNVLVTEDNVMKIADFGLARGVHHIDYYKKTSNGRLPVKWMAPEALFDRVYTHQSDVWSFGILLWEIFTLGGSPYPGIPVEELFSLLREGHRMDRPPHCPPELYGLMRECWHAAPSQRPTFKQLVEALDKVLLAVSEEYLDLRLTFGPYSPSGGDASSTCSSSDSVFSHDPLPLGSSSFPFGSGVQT

In the case of `COC[C@@H](C)Oc1cc(NC(=O)N(C)c2ccc(CN3CCOCC3=O)c(C=O)n2)ncc1C#N` [Compound 14, (R)-3-(5-cyano-4-((1-methoxyprop-2-yl)oxo)pyrid-2-yl)-1-(6-formyl-5-((3-carbonylmorpholino)methyl)pyrid-2-yl)-1-methylurea], the IC50 is below 10 nM in assay [1], above 1000 nM in assay [2] and above 1000 nM in assay [3].
